*1 amine or outer side, *2 acyl side, *3 side chain or, on linkers, in order; H or OH if unused. Where a SMILES comes first, the peptide text is derived from it. [ ]: non-standard residue; d: D form. The star is where a group is joined. ξ: configuration not given here. Ala(thiazol-5-yl) = N[C@@H](Cc1cncs1)C(=O)O; Ala(4-thiazolyl) = N[C@@H](Cc1cscn1)C(=O)O; NMePhe(4-F) = CN[C@@H](Cc1ccc(F)cc1)C(=O)O; NMeAla(cPent) = CN[C@@H](CC1CCCC1)C(=O)O; Phe(4-Cl) = N[C@@H](Cc1ccc(Cl)cc1)C(=O)O; Phe(4-F) = N[C@@H](Cc1ccc(F)cc1)C(=O)O; X2 = CC1(C)CN([*:1])[C@@H]1C(=O)[*:2]; NMeF = CN[C@@H](Cc1ccccc1)C(=O)O; NMeNva = CCC[C@H](NC)C(=O)O; NMeV = CN[C@H](C(=O)O)C(C)C; hSer = N[C@@H](CCO)C(=O)O; NMeA = CN[C@@H](C)C(=O)O; dNMeA = CN[C@H](C)C(=O)O; ξNMeV = CNC(C(=O)O)C(C)C; Aze = O=C(O)[C@@H]1CCN1; NBuGly = CCCCNCC(=O)O; Butyryl = CCCC(=O)*; Nme = COCCNCC(=O)O; Sar = CNCC(=O)O
How the values were obtained:
[1] = molecular target: T1, Human MDM2 (HDM2) 1-116 (Homo sapiens, UniProt Q00987); experiment: Fluorescence Polarization Assay 1 (MDM2/p53 peptide); assay type: binding; conditions: FAM-labeled p53 peptide, 60 minutes
T1 construct: Human MDM2 (HDM2) 1-116
Procedure: Fluorescence Polarization Assay 1
(§1) Human MDM2 (HDM2) 1-116 (20 μL) and FAM-labeled GGTSFAEYWNLLSP-NH2, 10 nM and 5 nM respectively in 10 mM Tris, 50 mM NaCl, 0.01% Tween20, and 1 mM DTT at pH 7.4 were dispensed into an opaque, black, 384 well plate. Compounds dissolved in DMSO were pin transferred (˜100-200 nL) to the 384 well plate containing the MDM2/p53 solution. After incubation for 60 minutes, the fluorescence polarization was read on a Molecular Devices SpectraMax plate reader equipped with a Fluorescein FP cartridge. In addition to probe alone (positive control) and probe/MDM2 (negative control), a titration of linear p53(18-26) was included on every plate as an additional control. IC50 values were fit using either Prism or Collaborative Drug Discovery.

[2] = molecular target: T2, Human MDM4 (HDM4) 1-114 (Homo sapiens, UniProt O15151); experiment: Fluorescence Polarization Assay 2 (MDM4/p53 peptide); assay type: binding; conditions: FAM-labeled p53 peptide, 60 minutes
T2 construct: Human MDM4 (HDM4) 1-114
T2 sequence (O15151 1-114): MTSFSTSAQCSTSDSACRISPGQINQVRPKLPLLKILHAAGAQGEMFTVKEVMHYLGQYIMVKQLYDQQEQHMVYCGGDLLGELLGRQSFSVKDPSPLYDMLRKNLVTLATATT
Procedure: Fluorescence Polarization Assay 2
as §1, with “MDM4 (HDM4) 1-114” for “MDM2 (HDM2) 1-116”, “GGTSFAEYWNLLSP —NH2, 20” for “GGTSFAEYWNLLSP-NH2, 10”, “(−100-200” for “(˜100-200”, “MDM4/p53” for “MDM2/p53”, “probe/MDM4” for “probe/MDM2”

[3] = test system: WaGa cells; experiment: Cellular Fluorescence Assay 3 (CellTiter-Glo, 72 hours); assay type: cell-based
Procedure: Cellular Fluorescence Assay 3
(§2) WaGa cells were grown in suspension in T75 flasks in RPMI medium with 10% fetal bovine serum (FBS) at 37° C. with 5% CO2. 40 μL of WaGa cells were plated into columns 1-22 of white, flat bottom, 384 well plates at a density of 1,000 cells per well in RPMI with 10% FBS. Columns 23 and 24 were filled with 40 μL of media as a positive control. 100 nL of compounds dissolved in DMSO were pin transferred into columns 3-22 of the 384 well plate. Columns 1 and 2 served as negative control wells. Plates were incubated for 72 hours at 37° C. with 5% CO2. After incubation, the cells were given 10 μL of CellTiter-Glo® (Promega®). Luminescence was read on a Molecular Devices SpectraMax i3x plate reader.

[4] = test system: MV4-11 cells; experiment: Cellular Fluorescence Assay 2 (CellTiter-Glo, 72 hours); assay type: cell-based
Procedure: Cellular Fluorescence Assay 2
as §2, with “MV4-11” for “WaGa”

[5] = test system: MKL-1 cells; experiment: Cellular Fluorescence Assay 4 (CellTiter-Glo, 72 hours); assay type: cell-based
Procedure: Cellular Fluorescence Assay 4
as §2, with “MKL-1” for “WaGa”, “MKL-1” for “of WaGa”, “reader. In some embodiments, the cyclic peptide described herein is a cyclic peptide depicted in Table 1: […]” for “reader.”

[6] = test system: MOLM-13 cells; experiment: Cellular Fluorescence Assay 1 (CellTiter-Glo, 72 hours); assay type: cell-based
Procedure: Cellular Fluorescence Assay 1
as §2, with “MOLM-13” for “WaGa”, “ofMOLM-13” for “of WaGa”

T1 sequence (Q00987 1-116): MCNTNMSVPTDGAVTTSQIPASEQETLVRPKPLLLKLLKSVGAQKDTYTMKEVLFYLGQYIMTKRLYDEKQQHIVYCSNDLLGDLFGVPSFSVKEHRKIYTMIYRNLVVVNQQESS

`COCC[C@@H]1NC(=O)[C@H]2CCCN2C(=O)[C@H](Cc2ccc(F)cc2)N(C)C(=O)[C@H](Cc2ccc(Cl)cc2)NC(=O)[C@@H]2CCN2C(=O)[C@H](Cc2ccc(F)cc2)NC(=O)CN(CCOC)C(=O)[C@@H](C)N(C)C(=O)[C@H](Cc2cscn2)NC(=O)CN(C)C1=O` [compound 23] (cyclo([Ala(4-thiazolyl)][dNMeA][Nme][Phe(4-F)][Aze][Phe(4-Cl)][NMePhe(4-F)][dP][hSer](Me)[Sar])) gave an IC50 [1] of 50 to 100 nM, an IC50 [2] of 50 to 100 nM and an IC50 [3] of at least 150 nM. The IC50 [4] was at least 150 nM, the IC50 [5] was at least 2000 nM and the IC50 [6] was at least 150 nM.
Work on `CCCCN1CC(=O)N[C@@H](Cc2ccc(F)cc2)C(=O)N(C)C(C(C)C)C(=O)N[C@@H](Cc2ccc(Cl)cc2)C(=O)N(C)[C@@H](Cc2ccccc2)C(=O)N2CCC[C@@H]2C(=O)N[C@@H](CCOC)C(=O)N(C)[C@@H](C)C(=O)N[C@@H](Cc2cncs2)C(=O)N(C)[C@H](C)C1=O` (stereo partly drawn) [compound 24] (cyclo([NMeA][Ala(thiazol-5-yl)][dNMeA][NBuGly][Phe(4-F)][ξNMeV][Phe(4-Cl)][NMeF][dP][hSer](Me))) yielded an IC50 [1] of 25 to 50 nM, an IC50 [2] of at least 100 nM and an IC50 [3] of at least 150 nM. The IC50 [4] was at least 150 nM, the IC50 [5] was at least 2000 nM and the IC50 [6] was at least 150 nM.
`COCC[C@@H]1NC(=O)[C@H]2CCCN2C(=O)[C@H](Cc2ccccc2)N(C)C(=O)[C@H](Cc2ccc(Cl)cc2)NC(=O)[C@H](C(C)C)N(C)C(=O)[C@H](Cc2ccc(F)cc2)NC(=O)CN(C)C(=O)[C@@H](C)N(C)C(=O)[C@H](Cc2cncs2)NC(=O)[C@H](C)N(C)C1=O` [compound 27] (cyclo([NMeA][Ala(thiazol-5-yl)][dNMeA][Sar][Phe(4-F)][NMeV][Phe(4-Cl)][NMeF][dP][hSer](Me))) was tested, and the IC50 [1] was under 25 nM, the IC50 [2] was at least 100 nM and the IC50 [3] was 100 to 150 nM. The IC50 [4] was 100 to 150 nM, the IC50 [5] was 500 to 1000 nM and the IC50 [6] was at least 150 nM.
`CCCC(=O)O[C@H](C)[C@@H]1NC(=O)[C@H](Cc2ccc(F)cc2)NC(=O)CN(CCOC)C(=O)[C@@H](C)N(C)C(=O)[C@H](Cc2cscn2)NC(=O)[C@H](C)N(C)C(=O)[C@H](CCOC)NC(=O)[C@H]2CCCN2C(=O)[C@H](Cc2ccccc2)N(C)C(=O)[C@H](Cc2ccc(Cl)cc2)NC1=O` [compound 6] (cyclo([Ala(4-thiazolyl)][dNMeA][Nme][Phe(4-F)]T(Butyryl)[Phe(4-Cl)][NMeF][dP][hSer](Me)[NMeA])) showed an IC50 [1] of 25 to 50 nM, an IC50 [2] of 50 to 100 nM and an IC50 [3] of under 50 nM. The IC50 [4] was under 50 nM, the IC50 [5] was under 500 nM and the IC50 [6] was 50 to 100 nM.
In the case of `CCC[C@H]1C(=O)N[C@@H](Cc2ccc(F)cc2)C(=O)N(C)[C@@H](C(C)C)C(=O)N[C@@H](Cc2ccc(Cl)cc2)C(=O)N(C)[C@@H](Cc2ccccc2)C(=O)N2CCC[C@@H]2C(=O)N[C@@H](CCOC)C(=O)N(C)[C@@H](C)C(=O)N[C@@H](Cc2cncs2)C(=O)N(C)[C@H](C)C(=O)N1C` [compound 28] (cyclo([NMeA][Ala(thiazol-5-yl)][dNMeA][NMeNva][Phe(4-F)][NMeV][Phe(4-Cl)][NMeF][dP][hSer](Me))), the IC50 [1] is reported as under 25 nM, the IC50 [2] is reported as at least 100 nM and the IC50 [3] is reported as at least 150 nM. The IC50 [4] was 100 to 150 nM, the IC50 [5] was 1000 to 2000 nM and the IC50 [6] was at least 150 nM.
Compound `COCC[C@@H]1NC(=O)[C@H]2CCCN2C(=O)[C@H](Cc2ccc(F)cc2)N(C)C(=O)[C@H](Cc2ccc(Cl)cc2)NC(=O)[C@@H]2CCN2C(=O)[C@H](Cc2ccc(F)cc2)NC(=O)CN(CCOC)C(=O)[C@@H](C)N(C)C(=O)[C@H](Cc2cscn2)NC(=O)[C@H](C(C)C)N(C)C1=O` [compound 22] (cyclo([Ala(4-thiazolyl)][dNMeA][Nme][Phe(4-F)][Aze][Phe(4-Cl)][NMePhe(4-F)][dP][hSer](Me)[NMeV])) has an IC50 [1] of 25 to 50 nM, an IC50 [2] of 25 to 50 nM and an IC50 [3] of 50 to 100 nM. It also gave an IC50 [4] of 50 to 100 nM, an IC50 [5] of under 500 nM and an IC50 [6] of at least 150 nM.
Work on `COCC[C@@H]1NC(=O)[C@H]2CCCN2C(=O)[C@H](Cc2ccc(F)cc2)N(C)C(=O)[C@H](Cc2ccc(Cl)cc2)NC(=O)[C@@H]2CCN2C(=O)[C@H](Cc2ccc(F)cc2)NC(=O)CN(CCOC)C(=O)[C@@H](C)N(C)C(=O)[C@H](Cc2cscn2)NC(=O)[C@@H]2CCCN2C1=O` [compound 21] (cyclo([Ala(4-thiazolyl)][dNMeA][Nme][Phe(4-F)][Aze][Phe(4-Cl)][NMePhe(4-F)][dP][hSer](Me)P)) yielded an IC50 [1] of 50 to 100 nM, an IC50 [2] of 50 to 100 nM and an IC50 [3] of at least 150 nM. The IC50 [4] was at least 150 nM, the IC50 [5] was 1000 to 2000 nM and the IC50 [6] was at least 150 nM.
`COCC[C@@H]1NC(=O)[C@H]2CCCN2C(=O)[C@H](Cc2ccc(F)cc2)N(C)C(=O)[C@H](Cc2ccc(Cl)cc2)NC(=O)[C@H]2N(CC2(C)C)C(=O)[C@H](Cc2ccc(F)cc2)NC(=O)CN(CCOC)C(=O)[C@@H](C)N(C)C(=O)[C@H](Cc2cscn2)NC(=O)[C@H](C)N(C)C1=O` [compound 11] (cyclo([Ala(4-thiazolyl)][dNMeA][Nme][Phe(4-F)][X2][Phe(4-Cl)][NMePhe(4-F)][dP][hSer](Me)[NMeA])) was tested, and the IC50 [1] was under 25 nM, the IC50 [2] was under 25 nM and the IC50 [4] was 100 to 150 nM. The IC50 [6] was at least 150 nM.
In the case of `COCC[C@@H]1NC(=O)[C@H]2CCCN2C(=O)[C@H](Cc2ccccc2)N(C)C(=O)[C@H](Cc2ccc(Cl)cc2)NC(=O)[C@H](C(C)C)N(C)C(=O)[C@H](Cc2ccc(F)cc2)NC(=O)[C@H](C)N(C)C(=O)[C@@H](C)N(C)C(=O)[C@H](Cc2cncs2)NC(=O)[C@H](C)N(C)C1=O` [compound 26] (cyclo([NMeA][Phe(4-F)][NMeV][Phe(4-Cl)][NMeF][dP][hSer](Me)[NMeA][Ala(thiazol-5-yl)][dNMeA])), the IC50 [1] is reported as under 25 nM, the IC50 [2] is reported as 50 to 100 nM and the IC50 [3] is reported as 100 to 150 nM. It also gave an IC50 [4] of 50 to 100 nM, an IC50 [5] of 500 to 1000 nM and an IC50 [6] of 100 to 150 nM.
`COCC[C@@H]1NC(=O)[C@H]2CCCN2C(=O)[C@H](Cc2ccccc2)N(C)C(=O)[C@H](Cc2ccc(Cl)cc2)NC(=O)[C@H](CC2CCCC2)N(C)C(=O)[C@H](Cc2ccc(F)cc2)NC(=O)CN(CCOC)C(=O)[C@@H](C)N(C)C(=O)[C@H](Cc2cscn2)NC(=O)[C@H](C)N(C)C1=O` [compound 10] (cyclo([Ala(4-thiazolyl)][dNMeA][Nme][Phe(4-F)][NMeAla(cPent)][Phe(4-Cl)][NMeF][dP][hSer](Me)[NMeA])) gave an IC50 [1] of under 25 nM and an IC50 [2] of at least 100 nM.

From patent publication US20240199702A1, “CELL-PERMEABLE CYCLIC PEPTIDES AND USES THEREOF” (Unnatural Products Inc., priority 2021, published 2024)
